Experimental data as given in patent publication US20070104787A1, “Carboxyalkyl cellulose esters for sustained delivery of pharmaceutically active substances” (priority 2005, published 2007).

Tests used:
[1] = USP #2 paddle dissolution test: release of active in pH 1.2 or pH 6.8 buffer; type: physicochemical; conditions: for total release of active (in words): CMCAB tablets (Formulations E17, E18, E20), pH 1.2
Description: The dissolution tests were done using a USP #2 calibrated apparatus Varian VK 7000 with Teflon paddles. The pills were added to 900 ml of USP 1.2 pH buffer or to 900 ml of USP pH 6.8 buffer. The buffer solutions had each been degassed at 41° C. through a 0.45 micron hydrophilic polypropylene filter and held under vacuum for an additional 5 minutes. After the solutions were added to the dissolution vessels, the solutions were held at 37.3° C. in the water bath for 30 minutes to achieve constant temperature, prior to the addition of the tablets. The tablets were weighted down with a Varian 3-pronged capsule weight. At the beginning of each run, the tablets were allowed to sink to the bottom of the 1000 ml vessel, the stirrers were turned on at 50 rpm and samples taken as a function of time, using polypropylene syringes. The samples were filtered through 0.45 micron filters and immediately analyzed for the amount of aspirin in the solution. The wavelength for measuring the amount of aspirin (salicylic acid acetate) at pH 1.2 was 279 nm, which was the wavelength for equivalent molar absorptivities for both salicylic acid and aspirin using a Varian UV-VIS Spectrophotometer and quartz absorption cells. Similarly, the wavelength used to measure the concentration of the aspirin in pH 6.8 buffer was 267 nm, which was the wavelength where the molar absorptivity for salicylic acid and aspirin are equivalent at pH 6.8. This allowed accurate measurement of the release rate profile without having to worry about the degradation of the aspirin to salicylic acid with time. Each set of experiments had appropriate standards for reference for quantitative analysis. In the cases where the samples contained Vitamin E-TPGS, HPLC with UV detection was done to analyze for aspirin and salicylic acid.
6.0069 g CMCAB was mixed with 1.4937 g Fexofenadine HCl and 10.7693 g ethanol. The clear solution was allowed to dry into a clear film. The amorphous compatible film was then ground in a SPEX™ liquid nitrogen Freezer Mill for 6 minutes at 75% maximum speed. Torpac Inc. #2 Gelatin capsules were filled with the powdered polymer blend and tested using a Varian VK7000 USP II dissolution device at pH 1.2 and pH 6.8. The dissolution results are shown in FIG. 24, which is a plot of fexofenadine released from CMCAB solid dispersion (y-axis) versus time (minutes, x-axis) for Formulation E24 in Example 4. […] By varying the way the carboxyalkyl cellulose ester is mixed with the active, the rate of release can be varied so that one can achieve near zero order release of the active over a long period of time.

[2] = cited from earlier work

In the case of `OC(Cn1cncn1)(Cn1cncn1)c1ccc(F)cc1F` [fluconazole], the “pH dependence of release” value ([1]; CMCAB tablet (Formulation E22), pH 1.2 versus pH 6.8) is listed as “little pH dependence”, the “duration of near zero order release” value ([1]; CMCAB tablet at 25% active (Formulation E22)) is listed as “up to 500 minutes” and the water solubility [2] is listed as “highly water soluble”.

For `CC(C)Cc1ccc(C(C)C(=O)O)cc1` (stereo not drawn) [ibuprofen], the “total release of active (in words)” value [1] was “low total release”.

With `Cc1nnc(NS(=O)(=O)c2ccc(N)cc2)s1` [sulfamethizole] the “total release of active (in words)” value [1] was “low total release”.

For `COc1cc(Cc2cnc(N)nc2N)cc(OC)c1OC` [trimethoprim], the “total release of active (in words)” value [1] was “low total release”.
